Activity calls are given as the source filed them. The calls are words filed in the database; no cut-off is given here.
Legend:
[1] = test system: PCSK9/LDLR (Homo sapiens), Q8NBP7+P01130 [D374Y]; experiment: Binding affinity to C-terminal His tagged purified recombinant PCSK9 D374Y mutant (unknown origin) expressed in HEK293 cells assessed as reduction in PCSK9/LDLR protein-protein interaction at 100 uM by chemiluminescent assay
[2] = test system: PCSK9/LDLR (Homo sapiens), Q8NBP7+P01130 [D374Y]; experiment: (§1) Binding affinity to C-terminal His tagged purified recombinant PCSK9 D374Y mutant (unknown origin) expressed in HEK293 cells assessed as dose dependent reduction in PCSK9/LDLR protein-protein interaction at 0.1 uM to 1 mM uM by chemiluminescent assay
PCSK9/LDLR = PCSK9/LDLR (Homo sapiens, UniProt Q8NBP7, D374Y); experiment: as §1
Sequence of PCSK9/LDLR (Q8NBP7 whole entry D374Y, looked up): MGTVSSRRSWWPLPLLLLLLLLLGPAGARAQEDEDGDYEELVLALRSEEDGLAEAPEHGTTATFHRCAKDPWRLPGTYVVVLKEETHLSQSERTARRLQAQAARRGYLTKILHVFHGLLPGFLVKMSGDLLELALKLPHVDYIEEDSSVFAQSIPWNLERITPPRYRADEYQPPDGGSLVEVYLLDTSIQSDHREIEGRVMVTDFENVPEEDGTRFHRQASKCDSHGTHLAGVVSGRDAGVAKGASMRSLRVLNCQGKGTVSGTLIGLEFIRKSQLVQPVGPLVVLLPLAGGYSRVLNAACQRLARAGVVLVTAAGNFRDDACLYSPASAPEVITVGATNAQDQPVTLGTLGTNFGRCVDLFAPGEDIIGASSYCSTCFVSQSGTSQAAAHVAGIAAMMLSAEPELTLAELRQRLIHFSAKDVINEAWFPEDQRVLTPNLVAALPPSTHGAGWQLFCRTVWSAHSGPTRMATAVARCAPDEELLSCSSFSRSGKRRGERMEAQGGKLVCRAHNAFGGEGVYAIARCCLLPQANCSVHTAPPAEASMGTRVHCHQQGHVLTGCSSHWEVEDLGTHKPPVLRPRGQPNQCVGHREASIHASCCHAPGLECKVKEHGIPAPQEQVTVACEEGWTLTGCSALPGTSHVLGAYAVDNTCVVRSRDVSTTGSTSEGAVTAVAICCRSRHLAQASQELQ

[3] = test system: PCSK9/LDLR (Homo sapiens), Q8NBP7+P01130 [D374Y]; experiment: (§2) Inhibition of C-terminal His tagged purified recombinant PCSK9 D374Y mutant (unknown origin) and LDLR protein-protein interaction expressed in human HepG2 cells assessed as LDL-C uptake level at 10 uM incubated for 2 hrs by fluorescent LDL uptake cell-based assay (42.1 +/- 1.6%); design: scale not given: the % may be the effect or the level left
[4] = test system: PCSK9/LDLR (Homo sapiens), Q8NBP7+P01130 [D374Y]; experiment: as §2, with “Potency index, ratio of T9 to test compound for inhibition” for “Inhibition”, “assay” for “assay (42.1 +/- 1.6%)”
[5] = test system: PCSK9/LDLR (Homo sapiens), Q8NBP7+P01130 [D374Y]; experiment: Inhibition of C-terminal His tagged purified recombinant PCSK9 D374Y mutant (unknown origin) and LDLR protein-protein interaction expressed in human HepG2 cells assessed as LDLR protein expression level at cell surface at 10 uM incubated for 2 hrs by in-cell western analysis (reference value: 39.6 +/- 0.7%); type: cell-based; design: scale not given: the % may be the effect or the level left
[6] = test system: PCSK9/LDLR (Homo sapiens), Q8NBP7+P01130 [D374Y]; experiment: Inhibition of C-terminal His tagged purified recombinant PCSK9 D374Y mutant (unknown origin) and LDLR protein-protein interaction expressed in human HepG2 cells assessed as LDLR protein expression level at cell surface at 10 uM incubated for 2 hrs by in-cell western analysis relative to T9 peptide; type: cell-based; design: scale not given: the % may be the effect or the level left

Molecule	inhibition [1] [%]	inhibition [2]	IC50 (PCSK9/LDLR) [µM]	Activity [3] [%]	Ratio [4]	Activity [5] [%]	Activity [6] [%]
CC[C@H](C)[C@H](NC(=O)[C@@H](NC(=O)CNC(=O)[C@H](CCC(=O)O)NC(=O)[C@H](C)NC(=O)[C@H](CCC(N)=O)NC(=O)[C@H](Cc1cnc[nH]1)NC(=O)[C@H](CO)NC(=O)[C@H](CCC(N)=O)NC(=O)[C@H](CCC(=O)O)NC(=O)[C@H](CCC(N)=O)NC(=O)CN)C(C)C)C(=O)N[C@H](C(=O)N[C@@H](CCCNC(=N)N)C(=O)O)C(C)C	31.3	inactive	–	–	–	–	–
H-GQRQWKQAEGVMVR-OH	–	Dose-dependent effect	148	102	35	83.8	12.7

Reference: ChEMBL document CHEMBL4339215, “Inhibition of PCSK9D374Y/LDLR Protein-Protein Interaction by Computationally Designed T9 Lupin Peptide” (ACS Med Chem Lett, 2019)
